Patent US20240148821A1, “PHARMACEUTICAL USE OF CYCLIC PEPTIDE COMPOUND” (CHUGAI SEIYAKU KABUSHIKI KAISHA, priority 2021, published 2024)
pIC50: −log10 of the molar value. Bridge positions count the residues as written; N and C are the ends. Square brackets hold non-standard residues; d marks the D form. Peptide text beside a SMILES is read from it. * marks the point of attachment. NMeAbu(3,3-F2-piperidino) = CN[C@@H](CCN1CCCC(F)(F)C1)C(=O)O; hPhe(3-Cl-4-CF3) = N[C@@H](CCc1ccc(C(F)(F)F)c(Cl)c1)C(=O)O; NMePhe(4-Cl) = CN[C@@H](Cc1ccc(Cl)cc1)C(=O)O; NMePhe(4-Me) = CN[C@@H](Cc1ccc(C)cc1)C(=O)O; NMePhe(3-F) = CN[C@@H](Cc1cccc(F)c1)C(=O)O; NMeGly(cPent) = CN[C@H](C(=O)O)C1CCCC1; Phe(3-I) = N[C@@H](Cc1cccc(I)c1)C(=O)O; Pip(4-oxo) = O=C1CCN[C@H](C(=O)O)C1; NMeCha = CN[C@@H](CC1CCCCC1)C(=O)O; Ala(cPr) = N[C@@H](CC1CC1)C(=O)O; NMeChg = CN[C@H](C(=O)O)C1CCCCC1; NMeI = CC[C@H](C)[C@H](NC)C(=O)O; hPhe = N[C@@H](CCc1ccccc1)C(=O)O; N(CH2CH2)2CF2 = FC1(F)CCN(*)CC1; NMeD = CN[C@@H](CC(=O)O)C(=O)O; NMeL = CN[C@@H](CC(C)C)C(=O)O; NMeV = CN[C@H](C(=O)O)C(C)C; d(β3hA) = C[C@@H](N)CC(=O)O; NMeS = CN[C@@H](CO)C(=O)O; NMeA = CN[C@@H](C)C(=O)O; Nle = CCCC[C@H](N)C(=O)O; Piperidide = C1CCN(*)CC1; Ac5c = NC1(C(=O)O)CCCC1; Aze = O=C(O)[C@@H]1CCN1; Ac4c = NC1(C(=O)O)CCC1; CH2CMe2OH = CC(C)(O)C*; Aib = CC(C)(N)C(=O)O; Isopentyl = CC(C)CC*; Sar = CNCC(=O)O; Propyl = CCC*

system: Human pancreatic cancer cell line AsPC-1 (G12D mutation Kras); experiment: AsPC-1 cell growth inhibition (AsPC-1 CGI); assay type: cell-based; details: read-out: AsPC-1 cell growth inhibition, 50% growth inhibitory concentration (IC50 value); 96 hours, CellTiter-Glo, values classified in ranges
Description: Test compounds were serially dilated with dimethyl sulfoxide, and 200 nL was then dispensed to a U-bottom 96-well plate using Labcyte Echo. […] The cell suspension was dispensed to a. plate containing a test compound at 100 μL per well and incubated at 37° C. in a 5% carbon dioxide gas incubator. 96 hours later, 80 μL of CellTiter-Glo (Promega) was added to each well and fluorescence was measured.

**Q.** How did the pIC50 turn out when `CC[C@H](C)[C@@H]1NC(=O)[C@H](C2CCCC2)N(C)C(=O)C[C@@H](C)NC(=O)[C@H](C(C)C)N(C)C(=O)C2(CCCC2)NC(=O)[C@@H]2CCCN2C(=O)[C@H](CCc2ccc(C(F)(F)F)c(Cl)c2)NC(=O)CN(C)C(=O)[C@H](CC2CCCCC2)N(C)C(=O)CN(C)C(=O)CN(C)C1=O` [Compound 857] (cyclo([Ac5c][NMeV][d(β3hA)][NMeGly(cPent)]I[Sar][Sar][NMeCha][Sar][hPhe(3-Cl-4-CF3)]P)) was run?
**A.** < 6.30

**Q.** How did the pIC50 turn out when `CC[C@H](C)[C@@H]1NC(=O)[C@H](CC(C)C)N(C)C(=O)C[C@@H](C(=O)N2CCCCC2)N(C)C(=O)[C@H](C2CCCCC2)N(C)C(=O)C2(CCCC2)NC(=O)[C@@H]2CC(=O)CCN2C(=O)[C@H](CCc2ccc(C(F)(F)F)c(Cl)c2)NC(=O)CN(C)C(=O)[C@H](CC2CCCCC2)N(C)C(=O)CN(C)C(=O)CN(C)C1=O` [Compound 1089] ([NMeL]I[Sar][Sar][NMeCha][Sar][hPhe(3-Cl-4-CF3)][Pip(4-oxo)][Ac5c][NMeChg][NMeD]-Piperidide; lactam N-11) was run?
**A.** < 6.30

**Q.** With `CC[C@H](C)[C@@H]1NC(=O)[C@H](CC(C)C)N(C)C(=O)C[C@@H](C(=O)N(C)C)N(C)C(=O)[C@H]([C@@H](C)CC)N(C)C(=O)[C@H](C(C)C)NC(=O)[C@H](CCN2CCCC(F)(F)C2)N(C)C(=O)[C@H](CCc2ccc(C(F)(F)F)c(Cl)c2)NC(=O)CN(C)C(=O)[C@H](Cc2ccc(C)cc2)N(C)C(=O)[C@@H]2CCN2C(=O)[C@H](C)N(C)C1=O` [Compound 379] ([NMeL]I[NMeA][Aze][NMePhe(4-Me)][Sar][hPhe(3-Cl-4-CF3)][NMeAbu(3,3-F2-piperidino)]V[NMeI][NMeD]-NMe2; lactam N-11) as the molecule, how does the pIC50 read?
**A.** < 6.30

**Q.** `CCCOC[C@H]1C(=O)N(C)[C@H](C(=O)N2CCCCC2)CC(=O)N(C)[C@@H](CC(C)C)C(=O)N[C@@H]([C@@H](C)CC)C(=O)N(C)[C@@H](C)C(=O)N2CC[C@H]2C(=O)N(C)[C@@H](CC2CCCCC2)C(=O)N(C)CC(=O)N[C@@H](CCc2ccc(C(F)(F)F)c(Cl)c2)C(=O)N2CCC[C@H]2C(=O)NC2(CCCC2)C(=O)N1C` [Compound 1855] ([NMeL]I[NMeA][Aze][NMeCha][Sar][hPhe(3-Cl-4-CF3)]P[Ac5c][NMeS](Propyl)[NMeD]-Piperidide; lactam N-11) was tested. Which pIC50 did it give?
**A.** < 6.30

**Q.** How did the pIC50 turn out when `CC[C@H](C)[C@@H]1NC(=O)[C@H](CC(C)C)N(C)C(=O)C[C@@H](C(=O)N2CCCCC2)N(C)C(=O)[C@H](C(C)C)N(C)C(=O)C2(CCC2)NC(=O)[C@H](CC(=O)N2CCC(F)(F)CC2)N(C)C(=O)[C@H](CCc2ccc(C(F)(F)F)c(Cl)c2)NC(=O)CN(C)C(=O)[C@H](CC2CCCCC2)N(C)C(=O)CN(C)C(=O)CN(C)C1=O` [Compound 251] ([NMeL]I[Sar][Sar][NMeCha][Sar][hPhe(3-Cl-4-CF3)][NMeD](N(CH2CH2)2CF2)[Ac4c][NMeV][NMeD]-Piperidide; lactam N-11) was run?
**A.** < 6.30

**Q.** How did the pIC50 turn out when `CC(C)C[C@H]1C(=O)N[C@@H](CC2CC2)C(=O)N(C)CC(=O)N(C)CC(=O)N(C)[C@@H](CC2CCCCC2)C(=O)N(C)CC(=O)N[C@@H](CCc2ccc(C(F)(F)F)c(Cl)c2)C(=O)N2CCC[C@H]2C(=O)NC2(CCCC2)C(=O)N(C)[C@@H](C(C)C)C(=O)N(C)[C@H](C(=O)N2CCCCC2)CC(=O)N1C` [Compound 421] ([NMeL][Ala(cPr)][Sar][Sar][NMeCha][Sar][hPhe(3-Cl-4-CF3)]P[Ac5c][NMeV][NMeD]-Piperidide; lactam N-11) was run?
**A.** < 6.30

**Q.** `CC[C@H](C)[C@@H]1NC(=O)[C@H](CC(C)C)N(C)C(=O)C[C@@H](C)NC(=O)[C@H](CC(C)C)N(C)C(=O)C(C)(C)NC(=O)[C@H](COCC(C)(C)O)N(C)C(=O)[C@H](CCc2ccc(C(F)(F)F)c(Cl)c2)NC(=O)CN(C)C(=O)[C@H](COCCC(C)C)N(C)C(=O)CN(C)C(=O)CN(C)C1=O` [Compound 1546] (cyclo([Aib][NMeL][d(β3hA)][NMeL]I[Sar][Sar][NMeS](Isopentyl)[Sar][hPhe(3-Cl-4-CF3)][NMeS](CH2CMe2OH))) was tested. Which pIC50 did it give?
**A.** < 6.30

**Q.** How did the pIC50 turn out when `CC[C@H](C)[C@@H]1NC(=O)[C@H](CC(C)C)N(C)C(=O)C[C@@H](C(=O)N2CCCCC2)N(C)C(=O)[C@H](C(C)C)N(C)C(=O)C2(CCCC2)NC(=O)[C@@H]2CCCN2C(=O)[C@H](CCc2ccccc2)NC(=O)CN(C)C(=O)[C@H](CC2CCCCC2)N(C)C(=O)CN(C)C(=O)CN(C)C1=O` [Compound 265] ([NMeL]I[Sar][Sar][NMeCha][Sar][hPhe]P[Ac5c][NMeV][NMeD]-Piperidide; lactam N-11) was run?
**A.** < 6.30

**Q.** With `CCCC[C@@H]1NC(=O)[C@H](Cc2cccc(I)c2)NC(=O)CN(C)C(=O)[C@H](Cc2ccc(Cl)cc2)N(C)C(=O)CN(C)C(=O)CN(C)C(=O)[C@H]([C@@H](C)CC)NC(=O)[C@H](CC(C)C)N(C)C(=O)C[C@@H](C(=O)N2CCCCC2)N(C)C(=O)[C@H](CC(C)C)NC(=O)[C@H](Cc2cccc(F)c2)N(C)C1=O` [Compound 483] ([NMeL]I[Sar][Sar][NMePhe(4-Cl)][Sar][Phe(3-I)][Nle][NMePhe(3-F)]L[NMeD]-Piperidide; lactam N-11) as the molecule, how does the pIC50 read?
**A.** < 6.30
